The structures appear in SMILES notation. Read-outs that look alike come from different tables or passages of the source. Where only a bound is given, the exact number is not on record here.

Test [1] relates to HCV replicon (Replicon 1a). The test can be described thus: anti-HCV activity in Huh-7 cell line harboring a HCV replicon (Replicon 1a). To be noted: for inhibition at 1 µM: Hepatitis C virus, Huh-7, 72 h. In kind it is cell-based. (In general: In antiviral work, replicon cells carry a viral genome segment that copies itself.)
The next test has as its target cyclophilin A (Homo sapiens, UniProt P62937). The test is described as follows: Cyclophilin A TR-FRET competitive binding assay. The note with it: IC50 ranges, competition with CsA-Cy5 for His-tagged CypA, two-hour incubation. How it is done:
Cyclophilin A TR-FRET Competitive Binding Assay
Inhibitor potency was measured using a competitive binding assay with a time-resolved fluorescence resonance energy transfer (TR-FRET) readout. […] An IC50 value was calculated using a four-parameter logistic fit.

[2] abbreviates: read-out: Replicon 1a % inhibition at 1 μM, 1 μM, human hepatoma Huh-7 HCV replicon cells, 3 days, luciferase readout.
The mark [3] stands for this setting: read-out: Replicon 1a % inhibition at 1 μM.

Chain of cyclophilin A (P62937 whole entry, species assumed): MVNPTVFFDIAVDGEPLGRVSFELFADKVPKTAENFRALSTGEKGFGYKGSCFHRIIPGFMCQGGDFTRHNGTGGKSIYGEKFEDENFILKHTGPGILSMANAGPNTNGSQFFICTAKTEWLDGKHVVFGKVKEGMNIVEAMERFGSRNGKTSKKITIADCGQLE

As usually defined, the inhibition is how much of the control response was suppressed. Turning to `CC(C)[C@@H]1NC(=O)CCCCCc2cc3cc(ccc3cn2)[C@@H](C)OC(=O)[C@@H]2CCCN(N2)C(=O)[C@H](C)NC1=O` [Compound 62], the inhibition at 1 µM in test [1] (setting [2]) stood at 25%. For the same molecule, the IC50 on cyclophilin A (read-out: TR-FRET) lay in the range of 101 to 1000 nM.
The corresponding values for `CO[C@@H]1/C=C/c2cc3cc(ccc3cn2)[C@@H](C)OC(=O)[C@]2(C)CCCN(N2)C(=O)[C@H](C)NC(=O)[C@H](C(C)C)NC(=O)[C@@H]1C` (single isomer, unassigned) [Compound 34] are 92% and less than 100 nM.
For `CC(C)[C@@H]1NC(=O)CCCc2ccc3ccc(cc3c2)[C@@H](C)OC(=O)[C@@H]2CCCN(N2)C(=O)[C@H](C)NC1=O` [Compound 71], on cyclophilin A (read-out: TR-FRET), the IC50 lay within 101 to 1000 nM.
Take `COC1CCC=Cc2cccc(c2)C2CCCCN2C(=O)C2CCCN(N2)C(=O)C(C)NC(=O)C(C(C)C)NC(=O)C1C` (single isomer, unassigned) [Compound 30]: the “Replicon 1a % inhibition at 1 μM” value in test [1] (1 μM, human hepatoma Huh-7 HCV replicon cells, 3 days, luciferase readout) is 73%. Besides, the IC50 on cyclophilin A (read-out: TR-FRET) was less than 100 nM.
`C[C@@H]1NC(=O)[C@H](CCN=[N+]=[N-])NC(=O)C(C)(C)/C=C/c2cc3cc(ccc3cn2)[C@@H](C)OC(=O)[C@@H]2CCCN(N2)C1=O` [Compound 49]: the IC50 on cyclophilin A (read-out: TR-FRET) is less than 100 nM.
For `C[C@@H]1NC(=O)[C@H](Cc2ccccc2)NC(=O)C/C=C/c2cc3cc(ccc3cn2)[C@@H](C)OC(=O)[C@@H]2CCCN(N2)C1=O` [Compound 54], the inhibition at 1 µM in test [1] (setting [2]) was found to be 98%. Also, at cyclophilin A (read-out: TR-FRET), the IC50 was less than 100 nM.
On to `CC(C)[C@@H]1NC(=O)[C@]2(CCc3ccc4ccc(nc4c3)[C@@H](C)OC(=O)[C@@H]3CCCN(N3)C(=O)[C@H](C)NC1=O)CC[C@H](O)CC2` [Compound 161], for which, in test [1], the “Replicon 1a % inhibition at 1 μM” value amounted to 95%. For the same molecule, the IC50 at cyclophilin A (read-out: TR-FRET) was less than 100 nM.
Take `CC(C)[C@@H]1NC(=O)CCCc2cc3cc(ccc3cn2)[C@@H](C)OC(=O)[C@@H]2CCCN(N2)C(=O)[C@H](C)NC1=O` [Compound 10]: the inhibition at 1 µM in test [1] (setting [2]) came to 28%.
In the case of `CC(C)[C@@H]1NC(=O)[C@H](C)/C=C/c2ccc3ccc(nc3c2)[C@@H](C)OC(=O)[C@@H]2CCCN(N2)C(=O)[C@H](C)NC1=O` [Compound 26], the inhibition at 1 µM in test [1] (setting [3]) stood at 99%. Also, the IC50 on cyclophilin A (TR-FRET) is less than 100 nM.
For the molecule `CC(C)[C@@H]1NC(=O)C(C)(C)CCc2ccc3cnc(cc3c2)[C@@H](C)OC(=O)[C@@H]2CCCN(N2)C(=O)[C@H](C)NC1=O` [Compound 18], the inhibition at 1 µM in test [1] (setting [2]) was 94%. In addition, the IC50 at cyclophilin A (read-out: TR-FRET) was less than 100 nM.
In the case of `CC(C)[C@@H]1NC(=O)[C@](C)(CO)/C=C/c2ccc3ccc(nc3c2)[C@@H](C)OC(=O)[C@@H]2CCCN(N2)C(=O)[C@H](C)NC1=O` [Compound 80], in test [1] (setting [3]), the inhibition at 1 µM was found to be 97%. Besides, the IC50 on cyclophilin A (TR-FRET) was less than 100 nM.
In the case of `CC(C)C(=O)O[C@@H](C)[C@H]1/C=C/c2ccc3ccc(nc3c2)[C@@H](C)OC(=O)[C@@H]2CCCN(N2)C(=O)[C@H](C)NC(=O)[C@H](C(C)C)NC1=O` [Compound 165], the inhibition at 1 µM in test [1] (setting [2]) was 100%. Further, the IC50 on cyclophilin A (read-out: TR-FRET) is less than 100 nM.
`COc1cc2nc3cc(ccc13)/C=C/C(C)(C)C(=O)N[C@@H](C(C)C)C(=O)N[C@@H](C)C(=O)N1CCC[C@H](N1)C(=O)O[C@@H]2C` [Compound 139]: the IC50 on cyclophilin A (read-out: TR-FRET) was less than 100 nM.
For the molecule `CC(C)[C@@H]1NC(=O)C(C)(C)/C=C/c2cc3cc(ccc3cn2)[C@@H](C)NC(=O)[C@@H]2CCCN(N2)C(=O)[C@H](C)NC1=O` [Compound 143], the inhibition at 1 µM in test [1] (setting [2]) was determined as 31%. On cyclophilin A (read-out: TR-FRET), the IC50 was less than 100 nM.
As to `CC(C)[C@@H]1NC(=O)C/C=C/c2cc3cc(ccc3cn2)[C@@H](C(F)(F)F)NC(=O)[C@@H]2CCCN(N2)C(=O)[C@H](C)NC1=O` [Compound 23], the inhibition at 1 µM in test [1] (setting [2]) turned out to be 99%. Also, the IC50 at cyclophilin A (read-out: TR-FRET) is less than 100 nM.
With `CC(C)[C@@H]1NC(=O)C(C)(C(C)O)/C=C/c2ccc3ccc(nc3c2)[C@@H](C)OC(=O)[C@@H]2CCCN(N2)C(=O)[C@H](C)NC1=O` (single isomer, unassigned) [Compound 87], the IC50 at cyclophilin A (read-out: TR-FRET) was less than 100 nM.
In the case of `CC(C)[C@@H]1NC(=O)C/C=C/c2ccc3ccc(nc3c2)[C@@H](C)OC(=O)[C@@H]2CCCN(N2)C(=O)[C@H](C)NC1=O` [Compound 24], in test [1] (setting [2]), the inhibition at 1 µM was found to be 99%.
With `CC(C)[C@@H]1NC(=O)C(C)(C)/C=C/c2cc3cc(cnc3cn2)[C@@H](C)OC(=O)[C@@H]2CCCN(N2)C(=O)[C@H](C)NC1=O` [Compound 66], the IC50 at cyclophilin A (read-out: TR-FRET) is less than 100 nM.
Turning to `C#CC[C@@H]1NC(=O)C(C)(C)/C=C/c2cc3cc(ccc3cn2)[C@@H](C)OC(=O)[C@@H]2CCCN(N2)C(=O)[C@H](C)NC1=O` [Compound 51], on cyclophilin A (read-out: TR-FRET), the IC50 was less than 100 nM.
Same read-out and setting: with `CC(C)[C@@H]1NC(=O)C2(/C=C/c3ccc4ccc(nc4c3)[C@@H](C)OC(=O)[C@@H]3CCCN(N3)C(=O)[C@H](C)NC1=O)COC(C)(C)OC2` [Compound 75] the figure was less than 100 nM.
As to `CC(C)[C@@H]1NC(=O)CCCC/C=C/c2cc3cc(ccc3cn2)[C@@H](C)OC(=O)[C@@H]2CCCN(N2)C(=O)[C@H](C)NC1=O` [Compound 63], the inhibition at 1 µM in test [1] (setting [2]) was determined as 80%.
With `CC(C)[C@@H]1NC(=O)C2(/C=C/c3ccc4ccc(nc4c3)[C@@H](C)OC(=O)[C@@H]3CCCN(N3)C(=O)[C@H](C)NC1=O)CCN(Cc1ccccc1)CC2` [Compound 128], the IC50 on cyclophilin A (read-out: TR-FRET) is less than 100 nM.
As to `CC(C)[C@@H]1NC(=O)C2(/C=C/c3cc4cc(ccc4cn3)[C@@H](C)OC(=O)[C@@H]3CCCN(N3)C(=O)[C@H](C)NC1=O)CC2` [Compound 58], at cyclophilin A (read-out: TR-FRET), the IC50 was less than 100 nM.
For the molecule `CC(C)[C@@H]1NC(=O)C(C)(C)CCc2cc3cc(ccc3cn2)[C@@H](C)OC(=O)[C@@H]2CCCN(N2)C(=O)[C@H](C)NC1=O` [Compound 74], the inhibition at 1 µM in test [1] (setting [2]) was determined as 95%.
For the molecule `Cc1c2ccc3c(Cl)cc(nc13)[C@@H](C)OC(=O)[C@@H]1CCCN(N1)C(=O)[C@H](C)NC(=O)[C@H](C(C)C)NC(=O)C(C)(C)/C=C/2` [Compound 164], on cyclophilin A (read-out: TR-FRET), the IC50 is less than 100 nM.
With `CC(C)[C@@H]1NC(=O)/C=C\c2cc3cc(ccc3cn2)[C@@H](C)NC(=O)[C@@H]2CCCN(N2)C(=O)[C@H](C)NC1=O` [Compound 12], the inhibition at 1 µM in test [1] (setting [2]) stood at 0%.
In the case of `CC(C)[C@@H]1NC(=O)C([C@H](C)O)/C=C/c2ccc3ccc(cc3c2)[C@@H](C)OC(=O)[C@@H]2CCCN(N2)C(=O)[C@@H](C)NC1=O` (some centres unmarked) [Compound 145], on cyclophilin A (read-out: TR-FRET), the IC50 is less than 100 nM.
Take `CC(C)[C@@H]1NC(=O)CCC/C=C/c2cc3cc(ccc3cn2)[C@@H](C)OC(=O)[C@@H]2CCCN(N2)C(=O)[C@H](C)NC1=O` [Compound 61]: in test [1] (setting [2]), the inhibition at 1 µM was found to be 72%.
Regarding `CC(C)[C@@H]1NC(=O)C(C)(C2CCOC2)/C=C/c2ccc3ccc(nc3c2)[C@@H](C)OC(=O)[C@@H]2CCCN(N2)C(=O)[C@H](C)NC1=O` (some centres unmarked) [Compound 116], the IC50 on cyclophilin A (read-out: TR-FRET) was less than 100 nM.
`CC(C)[C@@H]1NC(=O)C2(/C=C/c3cc4cc(ccc4cn3)[C@@H](C)OC(=O)[C@@H]3CCCN(N3)C(=O)[C@H](C)NC1=O)CCOCC2` [Compound 59]: the IC50 at cyclophilin A (read-out: TR-FRET) was less than 100 nM.
Take `CC(C)[C@@H]1NC(=O)C2(/C=C/c3ccc4ccc(nc4c3)[C@@H](C)OC(=O)[C@@H]3CCCN(N3)C(=O)[C@H](C)NC1=O)CCC(F)(F)CC2` [Compound 121]: at cyclophilin A (read-out: TR-FRET), the IC50 was less than 100 nM.
In the case of `CC(C)[C@@H]1NC(=O)C(C)(C)/C=C/c2ccc3c(C#N)cc(nc3c2)[C@@H](C)OC(=O)[C@@H]2CCCN(N2)C(=O)[C@H](C)NC1=O` [Compound 140], the IC50 on cyclophilin A (read-out: TR-FRET) was in the range of 101 to 1000 nM.
For the molecule `CC(C)[C@@H]1NC(=O)[C@@H]([C@H](C)O)/C=C/c2ccc3ccc(nc3c2)[C@@H](C)OC(=O)[C@@H]2CCCN(N2)C(=O)[C@H](C)NC1=O` [Compound 31], the inhibition at 1 µM in test [1] (setting [2]) worked out at 98%.

Source of the values: patent US9512175B2, “Macrocyclic inhibitors of flaviviridae viruses” (Gilead Sciences, Inc., priority 2012, dated 2016).
